In the kinase profiling compilation of Christmann-Franck et al. (2016):

Legend:
Assay in all cases: radiometric filter-binding kinase assay, Kinase HotSpot
Settings in all cases: compound 0.5 µM; ATP 10 µM
[1] = target: ITK (human) (UniProt Q08881)
[2] = target: CDK4 CCND3 (human) (UniProt P30281+P11802)
[3] = target: GSK3B (human) (UniProt P49841)
[4] = target: PKN1 (human) (UniProt Q16512)
[5] = target: IRAK1 (human) (UniProt P51617)
[6] = target: CSNK1D (human) (UniProt P48730)
[7] = target: JAK2 JH1 JH2 (human) (UniProt O60674)
[8] = target: NEK2 (human) (UniProt P51955)
[9] = target: ADRBK1 (human) (UniProt P25098)
[10] = target: TSSK1B (human) (UniProt Q9BXA7)
[11] = target: CHUK (human) (UniProt O15111)
[12] = target: MAP3K14 (human) (UniProt Q99558)
[13] = target: MERTK (human) (UniProt Q12866)
[14] = target: MAP3K10 (human) (UniProt Q02779)
[15] = target: SRPK3 (human) (UniProt Q9UPE1)
[16] = target: SYK (human) (UniProt P43405)
[17] = target: CDK2 CCNA2 (human) (UniProt P24941+P20248)
[18] = target: RAF1 (human) (UniProt P04049)
[19] = target: MAPK13 (human) (UniProt O15264)
[20] = target: BTK (human) (UniProt Q06187)
[21] = target: MAP3K5 (human) (UniProt Q99683)
[22] = target: STK4 (human) (UniProt Q13043)
[23] = target: CDK5 CDK5R1 p35 (human) (UniProt Q00535+Q15078)
[24] = target: FLT1 (human) (UniProt P17948)
[25] = target: CAMK2G (human) (UniProt Q13555)
[26] = target: TYK2 JH1 catalytic (human) (UniProt P29597)
[27] = target: MAP4K4 (human) (UniProt O95819)
[28] = target: CAMKK1 (human) (UniProt Q8N5S9)
[29] = target: GSG2 (human) (UniProt Q8TF76)
[30] = target: PBK (human) (UniProt Q96KB5)
[31] = target: AURKC (human) (UniProt Q9UQB9)
[32] = target: AKT2 (human) (UniProt P31751)
[33] = target: ZAP70 (human) (UniProt P43403)
[34] = target: NUAK2 (human) (UniProt Q9H093)
[35] = target: SRPK2 (human) (UniProt P78362)
[36] = target: FYN (human) (UniProt P06241)
[37] = target: HIPK4 (human) (UniProt Q8NE63)
[38] = target: PLK2 (human) (UniProt Q9NYY3)
[39] = target: TSSK2 (human) (UniProt Q96PF2)
[40] = target: CDK2 CCNE1 (human) (UniProt P24941+P24864)
[41] = target: HIPK1 (human) (UniProt Q86Z02)
[42] = target: NTRK1 (human) (UniProt P04629)

SRPK2 (human), sequence (P78362 whole entry, looked up): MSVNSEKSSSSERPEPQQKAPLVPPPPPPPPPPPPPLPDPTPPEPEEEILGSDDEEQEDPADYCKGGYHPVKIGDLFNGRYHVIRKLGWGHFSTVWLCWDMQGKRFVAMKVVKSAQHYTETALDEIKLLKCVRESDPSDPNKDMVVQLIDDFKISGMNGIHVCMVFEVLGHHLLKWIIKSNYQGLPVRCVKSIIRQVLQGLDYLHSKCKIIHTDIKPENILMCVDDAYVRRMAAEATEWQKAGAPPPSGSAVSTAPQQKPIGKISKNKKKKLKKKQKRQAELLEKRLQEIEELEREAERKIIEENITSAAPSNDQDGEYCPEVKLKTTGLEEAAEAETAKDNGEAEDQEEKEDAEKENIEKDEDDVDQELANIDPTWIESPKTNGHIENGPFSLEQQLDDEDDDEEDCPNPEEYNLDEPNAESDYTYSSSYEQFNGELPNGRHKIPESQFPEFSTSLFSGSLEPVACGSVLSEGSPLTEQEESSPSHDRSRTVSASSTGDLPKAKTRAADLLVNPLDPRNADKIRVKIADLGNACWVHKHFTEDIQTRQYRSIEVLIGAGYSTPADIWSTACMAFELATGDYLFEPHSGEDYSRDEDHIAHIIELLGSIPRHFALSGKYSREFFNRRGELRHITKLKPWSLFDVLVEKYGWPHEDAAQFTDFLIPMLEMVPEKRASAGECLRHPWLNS
PLK2 (human), sequence (Q9NYY3 whole entry, looked up): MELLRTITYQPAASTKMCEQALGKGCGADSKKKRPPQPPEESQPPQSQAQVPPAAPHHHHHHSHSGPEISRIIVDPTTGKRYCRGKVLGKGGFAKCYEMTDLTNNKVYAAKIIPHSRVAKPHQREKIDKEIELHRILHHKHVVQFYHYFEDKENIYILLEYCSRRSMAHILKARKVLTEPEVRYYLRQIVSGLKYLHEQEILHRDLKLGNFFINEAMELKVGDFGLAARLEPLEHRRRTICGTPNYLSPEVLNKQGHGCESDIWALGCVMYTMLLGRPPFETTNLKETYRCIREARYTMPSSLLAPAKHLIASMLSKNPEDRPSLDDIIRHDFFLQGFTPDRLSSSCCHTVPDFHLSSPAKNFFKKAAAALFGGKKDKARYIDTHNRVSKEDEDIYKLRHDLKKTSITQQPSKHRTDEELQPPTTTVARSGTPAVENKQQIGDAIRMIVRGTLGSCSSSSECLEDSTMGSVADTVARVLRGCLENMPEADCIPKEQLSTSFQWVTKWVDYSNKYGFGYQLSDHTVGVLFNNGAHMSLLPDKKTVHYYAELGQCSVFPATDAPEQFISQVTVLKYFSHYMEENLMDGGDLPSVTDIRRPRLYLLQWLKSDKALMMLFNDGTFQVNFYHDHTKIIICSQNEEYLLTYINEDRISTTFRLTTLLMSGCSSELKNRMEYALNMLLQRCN
GSK3B (human), sequence (P49841 whole entry, looked up): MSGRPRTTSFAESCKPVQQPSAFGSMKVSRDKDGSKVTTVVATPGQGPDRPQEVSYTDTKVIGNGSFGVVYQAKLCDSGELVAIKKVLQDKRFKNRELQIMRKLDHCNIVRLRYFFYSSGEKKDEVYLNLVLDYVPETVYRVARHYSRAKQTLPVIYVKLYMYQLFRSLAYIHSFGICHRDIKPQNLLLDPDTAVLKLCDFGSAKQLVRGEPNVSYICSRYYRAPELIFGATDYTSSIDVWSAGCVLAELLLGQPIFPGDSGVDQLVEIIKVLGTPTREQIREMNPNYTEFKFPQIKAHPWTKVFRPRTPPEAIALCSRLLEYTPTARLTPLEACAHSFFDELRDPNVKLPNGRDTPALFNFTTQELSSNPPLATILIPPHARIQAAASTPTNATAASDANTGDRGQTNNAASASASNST
JAK2 JH1 JH2 (human), sequence (O60674 whole entry, looked up): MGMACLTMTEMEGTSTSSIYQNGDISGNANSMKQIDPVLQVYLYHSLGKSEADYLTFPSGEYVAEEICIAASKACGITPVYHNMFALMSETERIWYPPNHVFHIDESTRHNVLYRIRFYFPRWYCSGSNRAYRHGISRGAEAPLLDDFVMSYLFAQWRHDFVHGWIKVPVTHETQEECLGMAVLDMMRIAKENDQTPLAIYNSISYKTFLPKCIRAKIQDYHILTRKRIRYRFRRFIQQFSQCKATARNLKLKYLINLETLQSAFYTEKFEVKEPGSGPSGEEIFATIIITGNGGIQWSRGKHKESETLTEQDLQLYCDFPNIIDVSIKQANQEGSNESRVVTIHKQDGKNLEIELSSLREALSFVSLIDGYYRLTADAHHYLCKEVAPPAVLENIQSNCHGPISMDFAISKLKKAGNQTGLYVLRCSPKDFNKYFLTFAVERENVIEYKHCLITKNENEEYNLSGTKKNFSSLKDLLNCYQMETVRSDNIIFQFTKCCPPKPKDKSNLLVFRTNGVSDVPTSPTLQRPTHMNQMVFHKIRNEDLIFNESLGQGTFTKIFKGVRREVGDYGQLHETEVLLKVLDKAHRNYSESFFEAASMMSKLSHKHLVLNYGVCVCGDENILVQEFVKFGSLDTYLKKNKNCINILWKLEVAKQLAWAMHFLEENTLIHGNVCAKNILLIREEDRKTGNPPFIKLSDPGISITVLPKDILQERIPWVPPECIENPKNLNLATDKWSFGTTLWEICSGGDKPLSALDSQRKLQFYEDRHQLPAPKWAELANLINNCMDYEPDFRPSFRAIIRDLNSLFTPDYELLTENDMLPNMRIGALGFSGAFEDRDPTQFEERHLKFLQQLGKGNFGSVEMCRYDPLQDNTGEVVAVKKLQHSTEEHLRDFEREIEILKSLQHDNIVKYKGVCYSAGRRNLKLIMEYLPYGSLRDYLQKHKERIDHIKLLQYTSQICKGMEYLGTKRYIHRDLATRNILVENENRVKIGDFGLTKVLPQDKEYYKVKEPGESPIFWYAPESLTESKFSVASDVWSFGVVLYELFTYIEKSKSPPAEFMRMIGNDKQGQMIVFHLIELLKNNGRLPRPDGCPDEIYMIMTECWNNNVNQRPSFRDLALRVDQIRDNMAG
FYN (human), sequence (P06241 whole entry, looked up): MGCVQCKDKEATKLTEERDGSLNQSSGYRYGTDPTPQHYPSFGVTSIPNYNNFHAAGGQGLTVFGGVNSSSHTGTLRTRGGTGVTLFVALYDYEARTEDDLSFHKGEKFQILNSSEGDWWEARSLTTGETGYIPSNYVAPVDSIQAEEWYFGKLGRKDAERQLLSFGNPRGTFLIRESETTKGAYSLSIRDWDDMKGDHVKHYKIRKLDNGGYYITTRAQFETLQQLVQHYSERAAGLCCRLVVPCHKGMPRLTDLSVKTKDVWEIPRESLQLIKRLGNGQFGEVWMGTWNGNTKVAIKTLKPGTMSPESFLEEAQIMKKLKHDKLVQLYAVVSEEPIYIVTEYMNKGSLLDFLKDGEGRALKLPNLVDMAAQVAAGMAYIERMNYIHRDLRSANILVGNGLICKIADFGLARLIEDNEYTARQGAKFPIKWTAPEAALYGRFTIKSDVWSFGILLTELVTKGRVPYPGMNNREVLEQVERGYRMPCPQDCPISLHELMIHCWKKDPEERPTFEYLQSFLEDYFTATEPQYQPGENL
ZAP70 (human), sequence (P43403 whole entry, looked up): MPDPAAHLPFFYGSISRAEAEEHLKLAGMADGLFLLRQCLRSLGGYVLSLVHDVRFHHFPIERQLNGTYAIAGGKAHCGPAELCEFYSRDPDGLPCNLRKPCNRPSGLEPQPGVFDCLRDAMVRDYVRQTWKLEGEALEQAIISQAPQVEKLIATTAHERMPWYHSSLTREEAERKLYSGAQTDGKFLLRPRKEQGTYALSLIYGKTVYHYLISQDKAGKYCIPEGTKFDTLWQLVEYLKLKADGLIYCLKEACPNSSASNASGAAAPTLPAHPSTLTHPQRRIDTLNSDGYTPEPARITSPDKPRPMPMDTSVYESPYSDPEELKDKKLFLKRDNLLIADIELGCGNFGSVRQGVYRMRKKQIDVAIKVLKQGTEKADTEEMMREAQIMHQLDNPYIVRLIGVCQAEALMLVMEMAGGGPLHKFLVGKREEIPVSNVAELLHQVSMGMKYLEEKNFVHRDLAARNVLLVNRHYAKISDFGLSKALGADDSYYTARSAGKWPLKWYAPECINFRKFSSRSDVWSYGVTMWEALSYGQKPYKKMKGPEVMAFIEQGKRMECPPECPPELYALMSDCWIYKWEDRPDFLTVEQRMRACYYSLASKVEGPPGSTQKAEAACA
CDK4 CCND3 (human), sequence (P11802 whole entry, looked up): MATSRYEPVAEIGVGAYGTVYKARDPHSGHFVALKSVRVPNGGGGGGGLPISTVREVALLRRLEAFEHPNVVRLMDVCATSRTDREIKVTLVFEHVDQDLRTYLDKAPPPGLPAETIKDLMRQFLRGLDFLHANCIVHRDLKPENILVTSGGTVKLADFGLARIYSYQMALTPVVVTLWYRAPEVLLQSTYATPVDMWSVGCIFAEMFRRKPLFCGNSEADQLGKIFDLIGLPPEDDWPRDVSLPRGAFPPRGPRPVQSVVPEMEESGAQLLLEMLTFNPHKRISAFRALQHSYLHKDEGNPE
CDK4 CCND3 (human), sequence (P30281 whole entry, looked up): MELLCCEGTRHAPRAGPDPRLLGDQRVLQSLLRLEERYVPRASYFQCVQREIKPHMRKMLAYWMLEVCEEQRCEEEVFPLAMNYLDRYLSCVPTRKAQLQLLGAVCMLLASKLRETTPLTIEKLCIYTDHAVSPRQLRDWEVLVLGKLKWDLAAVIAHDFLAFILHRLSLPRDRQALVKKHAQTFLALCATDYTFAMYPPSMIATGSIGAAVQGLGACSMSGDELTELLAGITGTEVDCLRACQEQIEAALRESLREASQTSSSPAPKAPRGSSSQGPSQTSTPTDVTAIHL
AURKC (human), sequence (Q9UQB9 whole entry, looked up): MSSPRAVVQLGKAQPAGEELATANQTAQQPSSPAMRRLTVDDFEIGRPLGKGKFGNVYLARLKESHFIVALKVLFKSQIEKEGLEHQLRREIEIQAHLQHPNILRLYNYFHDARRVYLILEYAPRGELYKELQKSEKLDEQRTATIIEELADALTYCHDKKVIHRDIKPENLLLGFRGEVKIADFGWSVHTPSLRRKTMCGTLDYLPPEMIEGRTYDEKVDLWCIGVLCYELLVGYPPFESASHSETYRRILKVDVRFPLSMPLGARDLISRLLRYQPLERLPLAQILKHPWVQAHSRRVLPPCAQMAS

O=C1Cc2c([nH]c3ccc(Br)cc23)-c2ccccc2N1
residual activity [1]: 102% | residual activity [2]: 89% | residual activity [3]: 19.7% | residual activity [4]: 101% | residual activity [5]: 98.6% | residual activity [6]: 104% | residual activity [7]: 102% | residual activity [8]: 87.1% | residual activity [9]: 103% | residual activity [10]: 80.4% | residual activity [11]: 98.6% | residual activity [12]: 106% | residual activity [13]: 89.5% | residual activity [14]: 79.3% | residual activity [15]: 100% | residual activity [16]: 81.5% | residual activity [17]: 37.4% | residual activity [18]: 91.5% | residual activity [19]: 103% | residual activity [20]: 98% | residual activity [21]: 99.2% | residual activity [22]: 81.8% | residual activity [23]: 70.8% | residual activity [24]: 78.9% | residual activity [25]: 116% | residual activity [26]: 81.7% | residual activity [27]: 6.61% | residual activity [28]: 99.8% | residual activity [29]: 89.1% | residual activity [30]: 99.3% | residual activity [31]: 90.9% | residual activity [32]: 104% | residual activity [33]: 93.6% | residual activity [34]: 71.1% | residual activity [35]: 98.9% | residual activity [36]: 73.4% | residual activity [37]: 105% | residual activity [38]: 99.1% | residual activity [39]: 99.3% | residual activity [40]: 51.9%

O=C1NC(=O)C(c2c[nH]c3ccccc23)=C1c1c[nH]c2ccccc12
residual activity [1]: 102% | residual activity [2]: 89.8% | residual activity [41]: 102% | residual activity [3]: 28.4% | residual activity [4]: 84.6% | residual activity [5]: 89.6% | residual activity [6]: 95.7% | residual activity [7]: 100% | residual activity [8]: 102% | residual activity [9]: 98.4% | residual activity [10]: 106% | residual activity [11]: 93.4% | residual activity [12]: 91% | residual activity [13]: 86.1% | residual activity [14]: 79% | residual activity [15]: 90% | residual activity [16]: 103% | residual activity [17]: 81.9% | residual activity [18]: 122% | residual activity [19]: 104% | residual activity [20]: 98.2% | residual activity [21]: 106% | residual activity [22]: 61.8% | residual activity [23]: 79.5% | residual activity [24]: 53.9% | residual activity [25]: 104% | residual activity [42]: 92% | residual activity [26]: 109% | residual activity [27]: 58.5% | residual activity [28]: 114% | residual activity [29]: 84.7% | residual activity [30]: 100% | residual activity [31]: 101% | residual activity [32]: 102% | residual activity [34]: 86% | residual activity [35]: 84.3% | residual activity [36]: 101% | residual activity [37]: 109% | residual activity [38]: 97.7% | residual activity [39]: 110% | residual activity [40]: 71.4%

Nc1nnc2[nH]c3ccccc3nc1-2
residual activity [1]: 101% | residual activity [2]: 94.8% | residual activity [3]: 99.7% | residual activity [4]: 92% | residual activity [5]: 88.9% | residual activity [6]: 94.2% | residual activity [7]: 105% | residual activity [8]: 99.6% | residual activity [9]: 101% | residual activity [10]: 95.4% | residual activity [11]: 85.9% | residual activity [12]: 99.2% | residual activity [13]: 92.9% | residual activity [14]: 93.1% | residual activity [15]: 95.6% | residual activity [16]: 100% | residual activity [17]: 86.2% | residual activity [18]: 94.4% | residual activity [19]: 101% | residual activity [20]: 93.9% | residual activity [21]: 103% | residual activity [22]: 94.5% | residual activity [23]: 88.7% | residual activity [24]: 92.1% | residual activity [25]: 108% | residual activity [42]: 88.3% | residual activity [26]: 107% | residual activity [27]: 76.2% | residual activity [28]: 112% | residual activity [29]: 82.1% | residual activity [30]: 106% | residual activity [31]: 90.8% | residual activity [32]: 90.1% | residual activity [33]: 102% | residual activity [34]: 96.3% | residual activity [35]: 95.9% | residual activity [36]: 96.1% | residual activity [37]: 95.8% | residual activity [38]: 101% | residual activity [39]: 110% | residual activity [40]: 85.5%

COc1ccc(CNC(=O)Nc2ncc([N+](=O)[O-])s2)cc1
residual activity [1]: 89.5% | residual activity [2]: 94.4% | residual activity [41]: 100% | residual activity [3]: 40.2% | residual activity [4]: 94.3% | residual activity [5]: 108% | residual activity [7]: 104% | residual activity [8]: 99.1% | residual activity [9]: 96.4% | residual activity [10]: 106% | residual activity [11]: 97.1% | residual activity [12]: 84.2% | residual activity [13]: 91.1% | residual activity [14]: 97.9% | residual activity [15]: 100% | residual activity [16]: 98.6% | residual activity [17]: 93.3% | residual activity [18]: 94% | residual activity [19]: 91.1% | residual activity [20]: 102% | residual activity [21]: 87.8% | residual activity [22]: 99.8% | residual activity [23]: 96.4% | residual activity [24]: 96.8% | residual activity [25]: 102% | residual activity [26]: 108% | residual activity [27]: 98.8% | residual activity [28]: 119% | residual activity [29]: 90% | residual activity [30]: 110% | residual activity [31]: 98.4% | residual activity [32]: 103% | residual activity [33]: 102% | residual activity [34]: 89.9% | residual activity [35]: 99.6% | residual activity [36]: 102% | residual activity [37]: 103% | residual activity [38]: 104% | residual activity [39]: 105% | residual activity [40]: 97.6%

COc1cc2ncc(-c3ccccc3)nc2cc1OC
residual activity [1]: 97.8% | residual activity [2]: 97.5% | residual activity [41]: 93.4% | residual activity [3]: 113% | residual activity [4]: 104% | residual activity [5]: 98.4% | residual activity [6]: 101% | residual activity [7]: 94.4% | residual activity [8]: 85.3% | residual activity [9]: 95.8% | residual activity [10]: 94.5% | residual activity [11]: 113% | residual activity [12]: 115% | residual activity [13]: 80% | residual activity [14]: 105% | residual activity [15]: 91.1% | residual activity [16]: 92.5% | residual activity [17]: 92.9% | residual activity [18]: 106% | residual activity [19]: 89.6% | residual activity [20]: 98% | residual activity [21]: 108% | residual activity [22]: 96.3% | residual activity [23]: 95.8% | residual activity [24]: 85% | residual activity [25]: 94.5% | residual activity [42]: 93.2% | residual activity [26]: 93.9% | residual activity [27]: 62.1% | residual activity [28]: 98.9% | residual activity [29]: 92.1% | residual activity [30]: 85.5% | residual activity [31]: 90.1% | residual activity [32]: 86.7% | residual activity [33]: 98.6% | residual activity [34]: 133% | residual activity [35]: 84.4% | residual activity [36]: 100% | residual activity [37]: 86.4% | residual activity [39]: 85.7% | residual activity [40]: 85.4%
